Assay in data set [1]: not given
The source holds these as a separate data set.

Assay in data set [2]: not given
The source holds these as a separate data set.

The nature of data set [3]: method code SF-AS, from DOI: 10.2307/3574491, PMID: 940937. Conditions: pH 7.4.
Assay in data set [4]: not given
This is another data set of the same source.

Assay in data set [5]: not given
The source holds these as a separate data set.

Data set [6] in a line: method code SF-HPLC, from DOI: 10.1021/js980008v, PMID: 9758683.
Data set [7] is described as follows: method code SF-RC,AS, from DOI: 10.1016/s0022-3565(25)22658-1, PMID: 3367302. Conditions: pH 7.4.
Assay in data set [8]: not given
The source holds these as a separate data set.

Assay in data set [9]: not given
This is another data set of the same source.

The conditions of data set [10]: pH 2.0.
Assay in data set [11]: not given
This is another data set of the same source.

Data set [12] can be described thus: method code SF-AS, from DOI: 10.1023/a:1021720128725.
Assay in data set [13]: not given
This is another data set of the same source.

Assay in data set [14]: not given
The source holds these as a separate data set.

Data set [15] in a line: method code SF-GLC, from DOI: 10.1080/00032718608066246. Conditions: pH 7.0.
Data set [16] can be described thus: method code SF-RC, from DOI: 10.1007/bf01870888, PMID: 7057454.
Assay in data set [17]: not given
This is another data set of the same source.

Turning to `CO[C@H]1CCC[C@H]2C1=C(C(=O)OC(C)OC(=O)OC1CCCCC1)N1C(=O)[C@H]([C@@H](C)O)[C@@H]21` (some centres undefined), the logP (usually the decadic logarithm of the partition coefficient of the neutral form, usually between octanol and water) was 3. For `CC(C)(C)c1cccc(C(C)(C)C)c1O`, the logP in data set [1] was 4.92.

For the compound `CN(C)C(=O)Nc1ccc(Oc2ccc(Cl)cc2)cc1`, the logP in data set [2] was 3.7. On to `O=[N+]([O-])c1nccn1CCO`, for which the logD – broadly, lipophilicity at a set pH, counting ionised and neutral species – in data set [3] is -0.51. The compound `Cc1ccccc1C(=N)c1ccccc1` displayed a logP in data set [4] of 3.21. In the case of `CCCC(C)C1(CC)C(=O)NC(=S)NC1=O` (centres undefined), in [5], the logP is 2.54. In the case of `CCC(=O)OCN1C(=O)NC(c2ccccc2)(c2ccccc2)C1=O`, the logP in [6] was found to be 3.34. `[N-]=[N+]=N[C@H]1C[C@H](n2ccc(=O)[nH]c2=O)O[C@@H]1CO`: in [7], the logD is -0.37. In turn, `Nc1c(Cl)c(Cl)nc(C(=O)O)c1Cl` returned a logP in data set [2] of 1. As to `Cc1c(C)c2c(c(C)c1O)CCC(C)(COc1ccc(CC3SC(=O)NC3=O)cc1)O2` (centres undefined), the logP was 2.7.

`CCCCCC` registered a logP in [8] of 3.9. In the case of `CCOP(=S)(OCC)SCSP(=S)(OCC)OCC`, the logP in data set [9] was 4. Compound `Cc1cccc(C)c1C(=N)c1ccccc1` registered a logP in data set [4] of 3.53. For the compound `C/C=C/C=C/C(=O)O`, the logD in data set [10] was determined as 1.64. Turning to `CCN(CC)CCO`, the logP in [11] worked out at 0.31. For `COCC(O)Cn1c([N+](=O)[O-])cnc1C` (centres undefined), the logD in [3] is 0.04.

`Nc1nc2c(nc(Br)n2COCCO)c(=O)[nH]1` returned a logP in [12] of -0.26. In data set [2], `CCNC(=O)[C@@H](C)OC(=O)Nc1ccccc1` registered a logP of 1. `O=C(O)c1ccc(O)cc1O`: the logP in data set [13] was 1.41.

With `Cn1c(C=O)cnc1[N+](=O)[O-]`, in data set [3], the logD was -0.1. As to `COc1ccc(/C=C/[N+](=O)[O-])cc1`, the logP in data set [14] stood at 2.2. `Cc1c(F)c(F)c(COC(=O)[C@H]2[C@@H](/C=C(\Cl)C(F)(F)F)C2(C)C)c(F)c1F` gave a logP in data set [9] of 6.5. The compound `COP(=S)(CN1C(=O)c2ccccc2C1=O)OC` had a logP in data set [11] of 2.83. In turn, `Cc1ccc(C(=O)O)c(C2=NC(C)(C(C)C)C(=O)N2)c1` (centres undefined) displayed a logP in [9] of 1.54. With `c1ccc2nc3ccccc3cc2c1`, the logD in data set [15] stood at 3.32.

The compound `Nc1cccc(N)c1` showed a logP in data set [11] of 0. `CCOC(=O)Cn1c(CC)cnc1[N+](=O)[O-]`: the logD in data set [3] is 0.

In the case of `NC(N)=O`, the logP in data set [16] was -1.54. As for `CC(=O)OCCOC(C)=O`, the log partition coefficient (logP) in [11] came out at 0.1.

Compound `Cc1ccc(C(=N)c2ccc(C)cc2)cc1` gave a logP in data set [4] of 3.71.

Compound `COc1ccc(-c2cn3c(=O)c4ncn(COCCO)c4nc3[nH]2)cc1` returned a logP in data set [12] of 0.39. For the compound `CC(C)(C(=O)O)C(=O)O`, the logP in [11] turned out to be 0.26. In turn, `Nc1c(Cl)cc(Cl)cc1Cl` returned a log partition coefficient (logP) in [17] of 3.42. As for `Cc1cnc([N+](=O)[O-])n1CCO`, in [3], the logD stood at 0.18.

Source of the values: the SangsterLogP compilation.
